Laboratory results reported in US12414940B2, “Method of treating malignant tumor by azabicyclic compound” (TAIHO PHARMACEUTICAL CO., LTD., priority 2018, dated 2025).

What was measured:
solid cancer patients [1] = assay: Phase I study in solid cancer patients: determination of maximum tolerated dose (MTD); format: in vivo, human; details: for MTD: oral
Method: (§1) Purpose: This study was conducted for the purpose of determining a maximum tolerated dose (MTD) and estimating a recommended dose (RD) and an administration method when compound 1 was administered with one cycle set to 21 days targeting solid cancer patients, and of evaluating safety and observing an antitumor effect when the compound 1 was administered with one cycle set to 21 days targeting the patients, for example.
(§2) Method: The compound 1 was repeatedly administered between meals once a day in Step 1, and orally administered between meals every other day in Step 2. In Step 1, the initial dose was set to 4.8 mg/m^2 (level 1), and the dose of the compound 1 at each level was determined depending on a body surface area. The initial dose of Step 2 (level 1 of Step 2) was set to MTD (mg/m^2/day) of Step 1. The study was continued until the disease progressed or an intolerable adverse event occurred.
The dose (mg/body) to a study subject was calculated as described below. Dose (mg/body)=Dose (mg/m^2)×Body surface area (m^2)
The body surface area (BSA) was calculated to the second decimal place by rounding a value off to two decimal places using the formula of DuBois given below. The dose (mg/body) was calculated to an integer by rounding a value off to the closest whole number, and less than 2 mg was cut off because the minimum tablet dose in this study was 2 mg. BSA=([Body weight (kg)]0.425×[Body height (cm)]0.725)×0.007184

[2] = tested on: patients with local progressive unresectable or metastatic GIST; assay: Study in GIST patients: progression-free survival (RECIST Guideline Version 1.1); format: in vivo, human; details: 160 mg/body/day oral, 5 consecutive days and 2-day withdrawal period
Method: (§3) Purpose: In order to evaluate the effectiveness and safety, etc. of compound 1, this study was conducted for the purpose of evaluating the effectiveness and safety, etc. of the compound 1, targeting patients with local progressive unresectable or metastatic GIST who received the administration of imatinib, sunitinib or regorafenib in the past.
(§4) From the results of the study of Example 1, this study was carried out according to a schedule involving administration for 5 consecutive days and 2-day withdrawal period. The daily dose of the compound 1 was 160 mg/body/day for oral administration. One cycle was set to 21 days. The administration of the compound 1 was continued until the end date of the clinical trial or any of predetermined criterion for discontinuation were applicable.
For the evaluation of an antitumor effect, CT scan was carried out before the start of administration, every 3 weeks for subsequent 6 weeks, every 6 weeks for subsequent 3 months, and then every 8 weeks until the end of the test. Progression-free survival (PFS) stipulated by RECIST Guideline Version 1.1 was evaluated.

[3] = tested on: patients with local progressive unresectable or metastatic GIST; assay: Study in GIST patients: safety, tolerability and eye disorder; format: in vivo, human; details: 160 mg/body/day oral
Method: as §3, §4
For the evaluation of eye disorder, interview, visual acuity examination (corrected), intraocular pressure measurement, fundus examination, slit-lamp microscopy, optical coherence tomography (OCT), and color perception examination were carried out at the time of a baseline within 14 days before enrollment and at the completion of administration of the study drug.
Interview, visual acuity examination (corrected), intraocular pressure measurement, fundus examination, optical coherence tomography (OCT), slit-lamp microscopy, and color perception examination were further carried out as much as possible every 12 weeks after the start of administration of the study drug and every 24 weeks on week 48 or later (within ±7 days).
In addition to the determined ophthalmologic examination described above, ophthalmologic examination was appropriately carried out when eye problems were found by regular interview by clinical investigators or by declaration from patients themselves.

solid cancer patients [4] = assay: Phase I study in solid cancer patients: eye disorder related to treatment (ophthalmologic examination, CTCAE Ver. 4.03); format: in vivo
Method: The initial dose of Step 2 (level 1 of Step 2) was set to MTD (mg/m^2/day) of Step 1. The study was continued until the disease progressed or an intolerable adverse event occurred.
(§5) After determination of MTD for once-daily administration, administration was performed by once-daily administration, by alternate-day administration (repeated administration at cycles each involving one-day administration and one-day withdrawal period on the next day), or by a schedule involving administration for 5 consecutive days and 2-day withdrawal period, and evaluation was conducted.
In this test, ophthalmologic examination was conducted in order to evaluate eye disorder.
The ophthalmologic examination was carried out before enrollment, in the duration of administration, and during follow-up. In the duration of administration, ophthalmologic interview, visual acuity examination (corrected), intraocular pressure examination, fundus examination, slit-lamp microscopy, optical coherence tomography (OCT), and color perception examination were carried out for 21 days±1 day from the start of administration. Observation and examination before enrollment were carried out as immediately before the enrollment as possible. In addition to the determined ophthalmologic examination described above, ophthalmologic examination was appropriately carried out when eye problems were found by regular interview by clinical investigators or by declaration from patients themselves.

solid cancer patients [5] = assay: Phase I study in solid cancer patients: tumor response by RECIST Guideline Version 1.1; format: in vivo, human
Method: as §1, §2, §5
An antitumor effect on tumor was determined according to RECIST Guideline Version 1.1 (European Journal of Cancer 45 (2009) 228-247), and tumor shrinkage was evaluated by comprehensive evaluation on target lesions (lesions equal to or larger than a measurable size depending on a slice width in a diagnosis method (MRI, CT, X ray, etc.) measured at the time of enrollment) and non-target lesions (all lesions except for the target lesions).
The overall response of each case was evaluated according to the following criteria, and the best overall response was evaluated after confirmation of duration of the effect.
The best overall response was evaluated according to the following 5 levels. • CR: After reaching CR first, the CR status was maintained in examination performed after a lapse of at least 4 weeks or longer. • PR: After reaching PR first, the PR status was maintained in examination performed after a lapse of at least 4 weeks or longer. • SD: Neither CR nor PR was attained and no PD was confirmed in examination performed after a lapse of at least 6 weeks or longer from the start of administration. • PD: PD of target lesions or non-target lesions was confirmed without satisfying the criterion of CR, PR and SD, or the appearance of a new lesion was confirmed.
Proportion of cases with best overall response of CR and PR in an analyte population.
Proportion of cases with best overall response of CR, PR, Non-CR/non-PD, or SD continued for 12 weeks or longer in an analyte population.
Patients with non-small cell lung cancer, gastrointestinal stromal tumor, thymic cancer, biliary tract cancer, breast cancer, adenoid cystic cancer, pancreatic cancer, stomach cancer, ovary cancer, skin cancer, neuroblastoma, head and neck cancer, esophageal cancer, kidney cancer, colorectal cancer, sarcoma, mesothelioma, or the like entered the test.

rat eye tissue = assay: Histopathological study in rat eye tissue (hematoxylin and eosin, TUNEL); format: in vivo, Sprague-Dawley (SD) rats
[6] = Quantification of plasma and retinal tissue exposure after intravenous administration; format: in vivo, F344 nude rats; details: 30 minutes and 6 hours after administration
Method: Method: Compound 1 was administered to tumor-bearing F344 nude rats by intravenous administration. Plasma and the retina were collected 30 minutes and 6 hours after the administration. The retina samples were homogenized in phosphate-buffered saline. The plasma and the homogenized samples were analyzed by liquid chromatography-tandem mass spectrometry or high-performance liquid chromatography. The pharmacokinetics of the compound 1 were calculated by use of the non-compartmental analysis method (Methods Mol Biol 2012; 929: 377-89).

[7] = Quantification of plasma, tumor and retinal tissue exposure in tumor-bearing rats; format: in vivo, F344 nude rats
Method: After the administration, plasma, the retina, and tumor were collected according to a sampling schedule. The retina or tumor samples were homogenized in phosphate-buffered saline. The plasma and the homogenized samples were analyzed by liquid chromatography-tandem mass spectrometry or high-performance liquid chromatography. The pharmacokinetics of the compound 1 were calculated by use of the non-compartmental analysis method (Methods Mol Biol 2012; 929: 377-89).

[8] = tested on: progressive or unresectable GIST; details: group given regorafenib, third-line treatment of progressive or unresectable GIST; cited from earlier work
[9] = administration for consecutive days
[10] = 5 consecutive days and 2-day withdrawal period
[11] = QD Step 1 Dose escalation, Lv. 6 (107.5 mg/m^2) n = 6
[12] = QOD Step 2 Expansion (340 mg/body) n = 6
[13] = 12 mg/kg/day oral every day for 2 weeks, eyes collected 24 hours after final dose
[14] = rats, administered for consecutive days (Non-Patent Literature 6)
[15] = oral administration, tumor-bearing rats

CCc1cc(C(N)=O)ccc1-n1nc(C(C)C)c2c(-n3cnc(-c4cnn(C)c4)c3)ccnc21 [compound 1, 3-Ethyl-4-[3-(1-methylethyl)-4-[4-(1-methyl-1H-pyrazol-4-yl)-1H-imidazol-1-yl]-1H-pyrazolo[3,4-b]pyridin-1-yl]benzamide]
MTD converted to the fixed dose (solid cancer patients [1]; [9]): 160 mg/body/day
MTD (solid cancer patients [1]; [9]): 107.5 mg/m^2/day
MTD converted to the fixed dose (solid cancer patients [1]; alternate-day administration): 340 mg/body/day
MTD (solid cancer patients [1]; alternate-day administration): 210 mg/m^2/day
median PFS [2]: 4.4 months
frequency of occurrence of eye disorder [3, 10]: 20%
grade of eye disorder in all the patients [3, 10]: grade 1
tolerability [3, 10]: good tolerability
related adverse events observed ([3]; 5 consecutive days and 2-day withdrawal, reversible by discontinuation or decrease in dose): digestive tract disorder and elevated plasma creatinine levels
Eye Disorder, G2 (solid cancer patients [4]; QD Step 1 Dose escalation, Lv. 1 to 5 (4.8-76.8 mg/m^2) n = 7): 1 (14.3) n (%)
Eye Disorder, G2 (solid cancer patients [4]; [11]): 2 (33.3) n (%)
Eye disorder, G1 (solid cancer patients [4]; [11]): 3 (50.0) n (%)
Eye Disorder, ≥G3 (solid cancer patients [4]; QD Step 1 Dose escalation, Lv. 7 (150.5 mg/m^2) n = 3): 2 (66.7) n (%)
Eye disorder, G1 (solid cancer patients [4]; QD × 5 (5-day administration 2-day drug holiday) Step 1 Expansion (160 mg/body) n = 19): 5 (26.3) n (%)
Eye disorder, G1 (solid cancer patients [4]; QOD Step 2 Dose escalation, Lv. 1 to 2 (107.5-150.5 mg/m^2) n = 9): 2 (22.2) n (%)
Eye disorder, G1 (solid cancer patients [4]; QOD Step 2 Dose escalation, Lv. 3 (210.7 mg/m^2) n = 6): 1 (16.7) n (%)
Eye disorder, G1 (solid cancer patients [4]; QOD Step 2 Dose escalation, Lv. 4 (295.0 mg/m^2) n = 5): 1 (16.7) n (%)
Eye Disorder, G2 (solid cancer patients [4]; [12]): 1 (20.0) n (%)
Eye disorder, G1 (solid cancer patients [4]; [12]): 3 (60.0) n (%)
degree of eye disorder at MTD (solid cancer patients [4]; alternate-day administration group): limited to grade 1
degree of eye disorder at MTD (solid cancer patients [4]; group given administration for 5 consecutive days and 2-day withdrawal period): limited to grade 1
Eye Disorder, G2 (solid cancer patients [4]; human, in vivo): 4 (6.6) n (%)
Eye Disorder, ≥G3 (solid cancer patients [4]; human, in vivo): 2 (3.3) n (%)
Eye disorder, G1 (solid cancer patients [4]; human, in vivo): 14 (23.0) n (%)
side effect on vision (solid cancer patients [4]; phase I clinical trial, administration for consecutive days): caused a side effect for vision impairment
DCR (≥12 weeks), % of patients (solid cancer patients [5]; QD × 5, n = 18): (38.9) %
DCR (≥12 weeks), number of patients (solid cancer patients [5]; QD × 5, n = 18): 7
NE, % of patients (solid cancer patients [5]; QD × 5, n = 18): (5.6) %
NE, number of patients (solid cancer patients [5]; QD × 5, n = 18): 1
PD, % of patients (solid cancer patients [5]; QD × 5, n = 18): (44.4) %
PD, number of patients (solid cancer patients [5]; QD × 5, n = 18): 8
PR, % of patients (solid cancer patients [5]; QD × 5, n = 18): (0.0) %
PR, number of patients (solid cancer patients [5]; QD × 5, n = 18): 0
RR, % of patients (solid cancer patients [5]; QD × 5, n = 18): (0.0) %
RR, number of patients (solid cancer patients [5]; QD × 5, n = 18): 0
DCR (≥12 weeks), % of patients (solid cancer patients [5]; QD, n = 16): (31.3) %
DCR (≥12 weeks), number of patients (solid cancer patients [5]; QD, n = 16): 5
NE, % of patients (solid cancer patients [5]; QD, n = 16): (12.5) %
NE, number of patients (solid cancer patients [5]; QD, n = 16): 2
PD, % of patients (solid cancer patients [5]; QD, n = 16): (31.3) %
PD, number of patients (solid cancer patients [5]; QD, n = 16): 5
PR, % of patients (solid cancer patients [5]; QD, n = 16): (12.5) %
PR, number of patients (solid cancer patients [5]; QD, n = 16): 2
RR, % of patients (solid cancer patients [5]; QD, n = 16): (12.5) %
RR, number of patients (solid cancer patients [5]; QD, n = 16): 2
DCR (≥12 weeks), % of patients (solid cancer patients [5]; QOD, n = 26): (14.4) %
DCR (≥12 weeks), number of patients (solid cancer patients [5]; QOD, n = 26): 4
NE, % of patients (solid cancer patients [5]; QOD, n = 26): (3.8) %
NE, number of patients (solid cancer patients [5]; QOD, n = 26): 1
PD, % of patients (solid cancer patients [5]; QOD, n = 26): (57.7) %
PD, number of patients (solid cancer patients [5]; QOD, n = 26): 15
PR, % of patients (solid cancer patients [5]; QOD, n = 26): (3.8) %
PR, number of patients (solid cancer patients [5]; QOD, n = 26): 1
RR, % of patients (solid cancer patients [5]; QOD, n = 26): (3.8) %
RR, number of patients (solid cancer patients [5]; QOD, n = 26): 1
elevation of the number of TUNEL-positive apoptotic cells (rat eye tissue; [13]): not observed
histopathological change in the outer nuclear layer of the retina (rat eye tissue; [13]): did not cause any histopathological change
ocular toxicity (rat eye tissue; [14]): without exhibiting ocular toxicity
distribution in retina versus plasma [6]: lower in the retina than in plasma
distribution in tumor, retina and plasma [7, 15]: larger amount in tumor than in the retina and plasma
time to removal from the retina [7, 15]: ≤ 24 h
time to elimination from the rat retina [7, 14]: ≤ 24 h

CNC(=O)c1cc(Oc2ccc(NC(=O)Nc3ccc(Cl)c(C(F)(F)F)c3)c(F)c2)ccn1 [regorafenib]
median PFS [8]: 4.8 month
